The test system of experiment [1] is CD69 expression on CD19+ B cells in human whole blood. Put plainly: In Vitro whole blood CD69 Assay. The settings on record: B-cell. It counts as cell-based. As for the experimental part: In Vitro whole blood CD69 Assay
Human heparinized venous blood from health donors was aliquoted into 96-well plate and “spiked” with serial dilutions of formula I compounds in DMSO or with DMSO without drug. The final concentration of DMSO in all wells was 0.1%. The plate was incubated at 37° C. for 30 min. Drug-containing samples were stimulated with […] mouse anti-human IgD-dextran (1A62) or […] polyclonal rabbit F(ab′)2 anti-human IgD. Phosphate-buffered saline (PBS) was added to the negative control unstimulated sample and the plates were incubated overnight (18 to 22 hours) at 37° C. Cells were stained with fluorochrome-conjugated anti-CD19 and anti-CD69 antibodies. Lyse/fix solution was used to remove red blood cells by hypotonic lysis and to fix the remaining cells, which were then analyzed by flow cytometry. CD19+ B cells were gated and analyzed for CD69 expression. The percentage of B cells expressing CD69 was plotted versus the log 10 of the concentration of the drug and the best-fit curves (variable Hill slope) were generated to obtain the IC50 value.

The target in experiment [2] is T1, active BTK enzyme (Upstate 14-552) (Homo sapiens, UniProt Q06187).
T1 construct: purchased Upstate 14-552
T1 sequence (Q06187 whole entry): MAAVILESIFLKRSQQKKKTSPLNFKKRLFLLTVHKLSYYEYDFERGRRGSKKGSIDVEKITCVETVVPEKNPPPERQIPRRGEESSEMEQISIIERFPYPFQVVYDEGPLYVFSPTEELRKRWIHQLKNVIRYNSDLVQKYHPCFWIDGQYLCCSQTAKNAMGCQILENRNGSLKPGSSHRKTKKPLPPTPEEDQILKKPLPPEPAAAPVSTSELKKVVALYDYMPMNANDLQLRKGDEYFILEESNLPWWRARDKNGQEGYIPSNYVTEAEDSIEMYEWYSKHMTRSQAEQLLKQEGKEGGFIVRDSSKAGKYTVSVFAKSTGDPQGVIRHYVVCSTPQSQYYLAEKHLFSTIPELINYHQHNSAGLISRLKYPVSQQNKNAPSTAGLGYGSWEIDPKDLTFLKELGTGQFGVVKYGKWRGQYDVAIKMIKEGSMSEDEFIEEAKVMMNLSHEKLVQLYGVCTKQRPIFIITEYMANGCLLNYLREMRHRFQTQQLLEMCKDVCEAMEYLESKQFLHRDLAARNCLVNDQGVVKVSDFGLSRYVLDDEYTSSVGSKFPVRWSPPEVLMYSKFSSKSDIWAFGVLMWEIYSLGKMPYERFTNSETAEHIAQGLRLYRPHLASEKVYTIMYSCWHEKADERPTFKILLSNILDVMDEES
Put plainly: In Vitro BTK Kinase Assay: Btk-PolyGAT-LS Assay. It counts as biochemical. The settings on record: ATP 10 μM, polyGAT 100 nM, BTK 0.25 nM, 30 minutes, TRF readout. In outline: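 Active BTK (0.25 nM) phosphorylates fluorescein-polyGAT peptide (100 nM) with 10 µM ATP in Tris-HCl pH 7.5/MgCl2/DTT buffer, 30 min, EDTA stop. Phosphopeptide detected by TR-FRET with Tb-PY20 antibody after 45 min at room temperature; IC50 from four-parameter fit against DMSO and EDTA controls.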

Setting [3] is: human heparinized whole blood, anti-human IgD stimulation overnight, percentage of CD19+ B cells expressing CD69, flow cytometry, read-out: IC50.

The text below walks through data of US20240327380A1, “BTK INHIBITORS” (BIOGEN MA INC., priority 2020, published 2024).

Molecules are shown by their SMILES. Where two headings read alike, the source gives them in different places. A value given as a limit tells only on which side of the number the result lay.

Usually IC50 stands for the midpoint of a concentration-inhibition curve. On to `C=CC(=O)N(C1CC1)[C@@H]1CCCN(c2cnccc2-c2ccc(CNC(=O)c3cn(C(C)(C)C)nn3)c(C)c2)C1` (stereo in doubt) [Example 17, 1-(tert-butyl)-N-(4-(3-(3-(N-cyclopropylacrylamido)piperidin-1-yl)pyridin-4-yl)-2-methylbenzyl)-1H-1,2,3-triazole-4-carboxamide], for which the half-inhibitory concentration (IC50) in experiment [1] (setting [3]) was greater than 1000 nM; in experiment [2] it was no more than 1 nM.
On to `C=CC(=O)N1CCC(c2cnccc2-c2ccc(CNC(=O)c3noc(C(C)(C)C)n3)c(C)c2)CC1` [Example 35, N-(4-(3-(1-acryloylpiperidin-4-yl)pyridin-4-yl)-2-methylbenzyl)-5-(tert-butyl)-1,2,4-oxadiazole-3-carboxamide], for which the half-maximal inhibitory concentration (IC50) is 100 to 1000 nM in experiment [1] (setting [3]) and 1 to 10 nM in experiment [2].
The matching figures for `C=CC(=O)N(C)C1CCCN(c2cnccc2-c2ccc(CNC(=O)c3cc(C(C)(C)C)no3)c(C)c2)C1` (centres unmarked) [Example 46, 3-(tert-butyl)-N-(2-methyl-4-(3-(3-(N-methylacrylamido)piperidin-1-yl)pyridin-4-yl)benzyl)isoxazole-5-carboxamide]: 100 to 1000 nM and no more than 1 nM.
Regarding `C=CC(=O)N(C)C1COCCN(c2cnccc2-c2ccc(CNC(=O)c3cn(C(C)(C)C)nn3)c(C)c2)C1` (centres unmarked) [Example 52, 1-(tert-butyl)-N-(2-methyl-4-(3-(6-(N-methylacrylamido)-1,4-oxazepan-4-yl)pyridin-4-yl)benzyl)-1H-1,2,3-triazole-4-carboxamide], the IC50 in experiment [1] (setting [3]) was 100 to 1000 nM; in experiment [2], 1 to 10 nM.
The matching figures for `Cc1cc(-c2ccncc2N2CCN(C(=O)/C=C/CN(C)C)CC2)ccc1CNC(=O)c1noc(C(C)(C)C)n1` [Example 61, (E)-5-(tert-butyl)-N-(4-(3-(4-(4-(dimethylamino)but-2-enoyl)piperazin-1-yl)pyridin-4-yl)-2-methylbenzyl)-1,2,4-oxadiazole-3-carboxamide]: less than 100 nM and no more than 1 nM.
On to `C=CC(=O)N(C)C1CCCN(c2cnccc2-c2ccc(CNC(=O)c3nc(C(C)(C)C)co3)c(C)c2)C1` (centres unmarked) [Example 39, 4-(tert-butyl)-N-(2-methyl-4-(3-(3-(N-methylacrylamido)piperidin-1-yl)pyridin-4-yl)benzyl)oxazole-2-carboxamide], for which the IC50 in experiment [1] (Homo sapiens) is 100 to 1000 nM; in experiment [2] it was no more than 1 nM.
As to `Cc1cc(-c2ncncc2N2CCN(C(=O)/C=C/CN(C)C)CC2)ccc1CNC(=O)c1noc(C(C)(C)C)n1` [Example 82, (E)-5-(tert-butyl)-N-(4-(5-(4-(4-(dimethylamino)but-2-enoyl)piperazin-1-yl)pyrimidin-4-yl)-2-methylbenzyl)-1,2,4-oxadiazole-3-carboxamide], the IC50 is less than 100 nM in experiment [1] (setting [3]) and no more than 1 nM in experiment [2].
The matching figures for `Cc1cc(-c2ccncc2N2CCN(C(=O)/C=C/CN(C)C)CC2)ccc1CNC(=O)c1nc(C2(CF)CC2)no1` [Example 94, (E)-N-(4-(3-(4-(4-(dimethylamino)but-2-enoyl)piperazin-1-yl)pyridin-4-yl)-2-methylbenzyl)-3-(1-(fluoromethyl)cyclopropyl)-1,2,4-oxadiazole-5-carboxamide]: 100 to 1000 nM and no more than 1 nM.
For `C=CC(=O)N1CCCC(c2cnccc2-c2ccc(CNC(=O)c3cc(C(C)(C)C)on3)c(C)c2)C1` (centres unmarked) [Example 32, N-(4-(3-(1-acryloylpiperidin-3-yl)pyridin-4-yl)-2-methylbenzyl)-5-(tert-butyl)isoxazole-3-carboxamide], the values for the IC50 in experiment [1] (setting [3]) and in experiment [2] were 100 to 1000 nM and 1 to 10 nM, respectively.
For `C=CC(=O)N1CCC[C@H](c2cnccc2-c2ccc(CNC(=O)c3cc(C(C)(C)C)on3)c(C)c2)C1` (single isomer, unassigned) [Example 33] the same measures were greater than 1000 nM and 1 to 10 nM.
The matching figures for `Cc1cc(-c2c(C#N)cncc2N2CCN(C(=O)/C=C/CN(C)C)CC2)ccc1CNC(=O)c1noc(C(C)(C)C)n1` [Example 69, (E)-5-(tert-butyl)-N-(4-(3-cyano-5-(4-(4-(dimethylamino)but-2-enoyl)piperazin-1-yl)pyridin-4-yl)-2-methylbenzyl)-1,2,4-oxadiazole-3-carboxamide]: 100 to 1000 nM and 1 to 10 nM.
The matching figures for `C=CC(=O)N(C)C1CCCN(c2cnccc2-c2ccc(CNC(=O)c3nc(C(C)(C)C)no3)c(C)c2)C1` (centres unmarked) [Example 13, 3-(tert-butyl)-N-(2-methyl-4-(3-(3-(N-methylacrylamido)piperidin-1-yl)pyridin-4-yl)benzyl)-1,2,4-oxadiazole-5-carboxamide]: less than 100 nM and no more than 1 nM.
For the compound `C=CC(=O)N(CC)[C@@H]1CCCN(c2cnccc2-c2ccc(CNC(=O)c3cn(C(C)(C)C)nn3)c(C)c2)C1` (stereo in doubt) [Example 16, 1-(tert-butyl)-N-(4-(3-(3-(N-ethylacrylamido)piperidin-1-yl)pyridin-4-yl)-2-methylbenzyl)-1H-1,2,3-triazole-4-carboxamide], the IC50 was 100 to 1000 nM in experiment [1] (setting [3]) and no more than 1 nM in experiment [2].
Turning to `C=CC(=O)N1CCC(c2cnccc2-c2ccc(CNC(=O)c3nc(C(C)(C)C)no3)c(C)c2)CC1` [Example 36, N-(4-(3-(1-acryloylpiperidin-4-yl)pyridin-4-yl)-2-methylbenzyl)-3-(tert-butyl)-1,2,4-oxadiazole-5-carboxamide], the values for the IC50 in experiment [1] (setting [3]) and in experiment [2] were 100 to 1000 nM and 1 to 10 nM, respectively.
The matching figures for `C=CC(=O)N(C)[C@@H]1CCCCN(c2cnccc2-c2ccc(CNC(=O)c3cn(C(C)(C)C)nn3)c(C)c2)C1` [Example 51, (R)-1-(tert-butyl)-N-(2-methyl-4-(3-(3-(N-methylacrylamido)azepan-1-yl)pyridin-4-yl)benzyl)-1H-1,2,3-triazole-4-carboxamide]: greater than 1000 nM and no more than 1 nM.
With `C=CC(=O)N(C)C1CCCN(c2cnccc2-c2ccc(CNC(=O)c3coc(C(C)(C)C)n3)c(C)c2)C1` (centres unmarked) [Example 37, 2-(tert-butyl)-N-(2-methyl-4-(3-(3-(N-methylacrylamido)piperidin-1-yl)pyridin-4-yl)benzyl)oxazole-4-carboxamide], the IC50 in experiment [1] (setting [3]) was 100 to 1000 nM; in experiment [2], no more than 1 nM.
For `C=CC(=O)N(C)C1CCN(c2cnccc2-c2ccc(CNC(=O)c3cn(C(C)(C)C)nn3)c(C)c2)C1` (centres unmarked) [Example 2, 1-(tert-butyl)-N-(2-methyl-4-(3-(3-(N-methylacrylamido)pyrrolidin-1-yl)pyridin-4-yl)benzyl)-1H-1,2,3-triazole-4-carboxamide] the same measures were 100 to 1000 nM and 1 to 10 nM.
In the case of `CN(C)C/C=C/C(=O)N1CCN(c2cnccc2-c2ccc(CNC(=O)c3noc(C(C)(C)C)n3)c(C(F)(F)F)c2)CC1` [Example 90, (E)-5-(tert-butyl)-N-(4-(3-(4-(4-(dimethylamino)but-2-enoyl)piperazin-1-yl)pyridin-4-yl)-2-(trifluoromethyl)benzyl)-1,2,4-oxadiazole-3-carboxamide], the results for the IC50 in experiment [1] (setting [3]) and in experiment [2] were less than 100 nM and no more than 1 nM, respectively.
Regarding `C=CC(=O)N(C)C1CCCN(c2cnccc2-c2ccc(CNC(=O)c3nc(C(C)(C)C)no3)c(C)c2F)C1` (centres unmarked) [Example 18, 3-(tert-butyl)-N-(3-fluoro-2-methyl-4-(3-(3-(N-methylacrylamido)piperidin-1-yl)pyridin-4-yl)benzyl)-1,2,4-oxadiazole-5-carboxamide], the IC50 was 100 to 1000 nM in experiment [1] (setting [3]) and no more than 1 nM in experiment [2].
